Results on 23 compounds are retold here after patent US20240158370A1, “CK1 alpha AND DUAL CK1 alpha / GSPT1 DEGRADING COMPOUNDS” (Innovo Therapeutics, Inc., priority 2022, published 2024).

The DC50 is the midpoint of the concentration-degradation curve. Read a high DC50 as degradation only at high concentration.

Test [1] deals with T1, CK1α (Homo sapiens, UniProt P48729+Q96SW2).
T1 construct: CSNK1A1-HiBit KI HEK293(LgBit) Cells; host or cells: HEK293(LgBit) knock-in cells
Briefly: HiBiT degradation assay, CK1α, Procedure A. Type of test: cell-based. Conditions: six hours. The procedure, abridged:
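DC50 and Ymin (% remaining) were derived by four-parameter fitting of luminescence data. The data come from a six-hour, 37° C compound exposure of cells in DMEM/10% FBS over a ten-point range, 10 μM to 0.005 μM, followed by Nano-Glo HiBiT lytic detection.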
(In general: The HiBiT peptide binds its large partner to form an active luciferase.)

Test [2] concerns the target GSPT1 (Homo sapiens, UniProt P15170+Q96SW2). Briefly: HiBiT degradation assay, GSPT1, Procedure B (Molt 4_hGSPT1_HiBIT cells). Type of test: cell-based. Further details: Molt 4_hGSPT1_HiBIT N-terminus tagged cells were generated using CRISPR technology; endogenous in cells; host or cells: Molt 4 cells, CRISPR-edited. Conditions: six hours. Here is the method:
Molt 4_hGSPT1_HiBIT N-terminus tagged cells were generated using CRISPR technology. Cells were maintained in RPMI media (Thermo Fisher Scientific, Catalog #11875-093) containing 10% Fetal Bovine Serum (Thermo Fisher Scientific, Catalog #16140071) 1% Penicillin-Streptomycin (Thermo Fisher Scientific, Catalog #25200056). Cells were maintained at 37° C. in a 5% CO2 environment.
Compounds were spotted onto Cornin 384-Well, Cell Culture-Treated, Flat-Bottom, Low Flange Microplate (Fisher Scientific, Catalog #07-201-013) using a Tecan D300e digital dispenser. Ten-point dose response curves spanning from 10 μM to 0.005 μM with a 0.1% DMSO tolerance were used.
Cells were centrifuged for 5 minutes at 1200 RPMs. Cell culture media was aspirated off and cells were resuspended with RPMI+10% FBS. Cell density was determined using a Denovix CellDrop BF cell counter. Cell density was adjusted to 1×10^6 cells/ml. 40 μl of cells was added to compound treated tissue culture plates and incubated for six hours at 37° C. After six hours, cell culture plates were removed from tissue culture incubator and cooled to room temperature. 40 μl of Nano-GloHiBiT Lytic Detection Reagent (Promega, Catalog #N3040) was added to each well. Plates were placed on an orbital shaker (600 rpm) for 20 minutes. Luminescence was measured using an Envsion plate reader (Perkin Elmer). IC50 curves and Ymin were generated using a 4-parameter curve fit with GraphPad Prism software (Prism Corporation).
Results from the HiBiT assay (DC50 (nM) and Ymin (% remaining)) are shown below. All CK1α data was generated according to Procedure A. GSPT1 data for Examples 1-600, 603-620 and 703-705 was generated according to Procedure A. GSPT1 data for Examples 601, 621-702 and 706-735 was generated according to Procedure B.

T1 sequence (P48729 whole entry): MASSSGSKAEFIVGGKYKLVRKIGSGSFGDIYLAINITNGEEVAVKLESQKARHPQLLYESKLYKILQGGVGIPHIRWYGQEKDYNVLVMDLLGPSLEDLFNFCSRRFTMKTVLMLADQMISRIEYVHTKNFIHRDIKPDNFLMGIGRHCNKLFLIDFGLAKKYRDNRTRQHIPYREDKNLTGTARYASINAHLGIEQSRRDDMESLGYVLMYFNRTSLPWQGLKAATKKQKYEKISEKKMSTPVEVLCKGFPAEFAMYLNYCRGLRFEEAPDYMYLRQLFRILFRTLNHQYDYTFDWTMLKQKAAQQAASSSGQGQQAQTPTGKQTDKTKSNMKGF
T1 sequence (Q96SW2 whole entry): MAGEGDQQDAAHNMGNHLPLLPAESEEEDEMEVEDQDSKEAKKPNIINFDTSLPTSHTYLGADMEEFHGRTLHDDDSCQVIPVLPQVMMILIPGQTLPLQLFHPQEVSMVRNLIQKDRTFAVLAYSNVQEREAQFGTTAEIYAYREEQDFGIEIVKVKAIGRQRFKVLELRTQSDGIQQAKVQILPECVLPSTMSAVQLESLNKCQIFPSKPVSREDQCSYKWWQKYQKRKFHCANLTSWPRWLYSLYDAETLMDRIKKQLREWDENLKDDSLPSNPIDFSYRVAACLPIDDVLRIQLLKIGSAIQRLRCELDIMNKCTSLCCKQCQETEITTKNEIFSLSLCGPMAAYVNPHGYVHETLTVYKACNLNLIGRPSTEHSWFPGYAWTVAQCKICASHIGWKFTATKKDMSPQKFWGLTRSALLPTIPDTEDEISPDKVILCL
T1 sequence (Q16531 whole entry partner): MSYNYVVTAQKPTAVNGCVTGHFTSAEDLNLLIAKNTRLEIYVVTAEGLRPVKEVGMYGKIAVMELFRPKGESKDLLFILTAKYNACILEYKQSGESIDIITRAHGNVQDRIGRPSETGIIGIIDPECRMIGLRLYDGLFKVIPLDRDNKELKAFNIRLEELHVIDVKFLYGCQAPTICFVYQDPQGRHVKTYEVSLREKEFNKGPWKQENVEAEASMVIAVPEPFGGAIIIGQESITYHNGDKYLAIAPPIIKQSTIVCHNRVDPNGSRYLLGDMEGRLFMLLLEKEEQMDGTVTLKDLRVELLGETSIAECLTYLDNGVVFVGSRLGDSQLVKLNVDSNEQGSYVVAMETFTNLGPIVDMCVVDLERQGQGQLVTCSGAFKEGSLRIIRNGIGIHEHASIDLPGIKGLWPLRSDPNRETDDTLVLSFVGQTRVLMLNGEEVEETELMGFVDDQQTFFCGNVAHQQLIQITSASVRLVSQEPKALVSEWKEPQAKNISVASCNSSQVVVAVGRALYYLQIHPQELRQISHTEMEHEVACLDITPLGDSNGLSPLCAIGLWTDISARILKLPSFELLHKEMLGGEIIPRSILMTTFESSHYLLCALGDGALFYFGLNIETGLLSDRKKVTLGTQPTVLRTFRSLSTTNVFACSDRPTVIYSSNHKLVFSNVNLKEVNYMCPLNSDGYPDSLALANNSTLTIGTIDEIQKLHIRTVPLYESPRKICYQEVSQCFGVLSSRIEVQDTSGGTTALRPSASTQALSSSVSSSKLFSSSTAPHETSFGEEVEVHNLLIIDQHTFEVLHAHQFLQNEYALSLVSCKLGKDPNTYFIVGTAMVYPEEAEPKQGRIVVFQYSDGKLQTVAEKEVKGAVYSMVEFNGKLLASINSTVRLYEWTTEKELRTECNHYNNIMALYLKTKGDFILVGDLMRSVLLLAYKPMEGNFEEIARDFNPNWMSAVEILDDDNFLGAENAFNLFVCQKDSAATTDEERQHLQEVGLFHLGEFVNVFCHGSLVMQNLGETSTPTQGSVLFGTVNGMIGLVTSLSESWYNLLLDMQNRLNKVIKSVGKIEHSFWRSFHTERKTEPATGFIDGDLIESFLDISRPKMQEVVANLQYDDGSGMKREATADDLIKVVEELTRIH
Sequence of GSPT1 (P15170 whole entry): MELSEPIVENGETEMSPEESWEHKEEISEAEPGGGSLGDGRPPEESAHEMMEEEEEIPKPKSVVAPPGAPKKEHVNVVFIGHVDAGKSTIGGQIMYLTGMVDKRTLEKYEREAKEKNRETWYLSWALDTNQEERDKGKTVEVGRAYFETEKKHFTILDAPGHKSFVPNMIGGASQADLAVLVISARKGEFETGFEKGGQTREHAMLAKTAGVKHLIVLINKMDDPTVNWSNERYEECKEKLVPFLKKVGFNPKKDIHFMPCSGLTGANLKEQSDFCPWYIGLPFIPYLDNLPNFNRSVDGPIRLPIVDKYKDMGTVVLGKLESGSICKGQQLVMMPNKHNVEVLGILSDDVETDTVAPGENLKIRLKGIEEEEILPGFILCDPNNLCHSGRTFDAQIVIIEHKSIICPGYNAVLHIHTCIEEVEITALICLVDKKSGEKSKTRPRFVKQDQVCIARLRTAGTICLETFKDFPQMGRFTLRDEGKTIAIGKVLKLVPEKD
Sequence of GSPT1 (Q96SW2 whole entry): as the sequence (Q96SW2 whole entry) above
Sequence of GSPT1 (Q16531 whole entry partner): as the sequence (Q16531 whole entry partner) above

With `COc1ccccc1-c1nc(-c2ccc3c(c2)CN(C2CCC(=O)NC2=O)C3=O)cn1C` (centres unmarked) [Example 673], in test [1], the “CK1α Ymin” value was “E (E = >25-75% remaining)” and the DC50 was less than 25 nM. In test [2], the DC50 was less than 25 nM and the “GSPT1 Ymin” value is reported as “F (F = >75-100% remaining)”.

For `Cn1cc(-c2ccc3c(c2)CN(C2CCC(=O)NC2=O)C3=O)nc1-c1ccnc2ccccc12` (centres unmarked) [Example 686], in test [1], the “CK1α Ymin” value was “C (C = 0-10% remaining)” and the DC50 is less than 25 nM. In test [2], the DC50 is less than 25 nM and the “GSPT1 Ymin” value was “F (F = >75-100% remaining)”.

Take `Cn1cc(-c2ccc3c(c2)CN(C2CCC(=O)NC2=O)C3=O)nc1-c1ccc(Cl)cc1` (centres unmarked) [Example 629]: in test [1], the “CK1α Ymin” value is recorded as “C (C = 0-10% remaining)” and the DC50 was less than 25 nM. Moreover, in test [2], the DC50 is no less than 25 nM and the “GSPT1 Ymin” value was “F (F = >75-100% remaining)”.

On to `Cn1cc(-c2ccc3c(c2)CN(C2CCC(=O)NC2=O)C3=O)nc1C12CCC(CC1)CC2` (centres unmarked) [Example 718, 3-(5-(2-(bicyclo[2.2.2]octan-1-yl)-1-methyl-1H-imidazol-4-yl)-1-oxoisoindolin-2-yl)piperidine-2,6-dione], for which, in test [1], the “CK1α Ymin” value is “E (E = >25-75% remaining)” and the DC50 was less than 25 nM. Moreover, in test [2], the DC50 was no less than 25 nM and the “GSPT1 Ymin” value is given as “F (F = >75-100% remaining)”.

As to `Cn1cc(-c2ccc3c(c2)CN(C2CCC(=O)NC2=O)C3=O)nc1-c1ccc(F)c(F)c1` (centres unmarked) [Example 628], in test [1], the “CK1α Ymin” value is “D (D = >10- 25% remaining)” and the DC50 was less than 25 nM. Also, in test [2], the DC50 is no less than 25 nM and the “GSPT1 Ymin” value is recorded as “F (F = >75-100% remaining)”.

For the compound `Cn1cc(-c2ccc3c(c2)CN(C2CCC(=O)NC2=O)C3=O)nc1C12CCN(CC1)CC2` (centres unmarked) [Example 719, 3-(5-(1-methyl-2-(quinuclidin-4-yl)-1H-imidazol-4-yl)-1-oxoisoindolin-2-yl)piperidine-2,6-dione], in test [1], the “CK1α Ymin” value is listed as “E (E = >25-75% remaining)” and the DC50 is no less than 25 nM. Moreover, in test [2], the DC50 is no less than 25 nM and the “GSPT1 Ymin” value is recorded as “F (F = >75-100% remaining)”.

For the compound `Cc1ccc(-c2nc(-c3ccc4c(c3)CN(C3CCC(=O)NC3=O)C4=O)cn2C)c(N)c1` (centres unmarked) [Example 663], in test [1], the “CK1α Ymin” value is on record as “E (E = >25-75% remaining)” and the DC50 was less than 25 nM. Further, in test [2], the DC50 was less than 25 nM and the “GSPT1 Ymin” value was “F (F = >75-100% remaining)”.

In the case of `Cn1nc(-c2ccc3c(c2)CN(C2CCC(=O)NC2=O)C3=O)nc1-c1ccc(F)cc1` (centres unmarked) [Example 623, 3-(5-(5-(4-fluorophenyl)-1-methyl-1H-1,2,4-triazol-3-yl)-1-oxoisoindolin-2-yl)piperidine-2,6-dione], in test [1], the “CK1α Ymin” value is reported as “D (D = >10- 25% remaining)” and the DC50 is less than 25 nM. In test [2], the DC50 is less than 25 nM and the “GSPT1 Ymin” value is “F (F = >75-100% remaining)”.

For `C[C@H]1CCCCN1c1nc(-c2ccc3c(c2)CN(C2CCC(=O)NC2=O)C3=O)nn1C` (stereo partly drawn) [Example 708, 3-(5-(1-methyl-5-((S)-2-methylpiperidin-1-yl)-1H-1,2,4-triazol-3-yl)-1-oxoisoindolin-2-yl)piperidine-2,6-dione], in test [1], the “CK1α Ymin” value is given as “D (D = >10- 25% remaining)” and the DC50 was less than 25 nM. Also, in test [2], the DC50 was no less than 25 nM and the “GSPT1 Ymin” value is reported as “F (F = >75-100% remaining)”.

As to `Cn1cc(-c2ccc3c(c2)CN(C2CCC(=O)NC2=O)C3=O)nc1[C@H]1CC[C@H](C(F)(F)F)CC1` (some centres unmarked) [Example 601, 3-(5-(1-methyl-2-((1r,4r)-4-(trifluoromethyl)cyclohexyl)-1H-imidazol-4-yl)-1-oxoisoindolin-2-yl)piperidine-2,6-dione], in test [1], the “CK1α Ymin” value is listed as “E (E = >25-75% remaining)” and the DC50 was no less than 25 nM. In test [2], the DC50 was no less than 25 nM and the “GSPT1 Ymin” value was “E (E = >25-75% remaining)”.

Turning to `Cn1nc(-c2ccc3c(c2)CN(C2CCC(=O)NC2=O)C3=O)nc1N1[C@@H]2CCC[C@H]1CC2` (stereo partly drawn) [Example 706, 3-(5-(5-((1R,5S)-8-azabicyclo[3.2.1]octan-8-yl)-1-methyl-1H-1,2,4-triazol-3-yl)-1-oxoisoindolin-2-yl)piperidine-2,6-dione], in test [1], the “CK1α Ymin” value is “D (D = >10- 25% remaining)” and the DC50 was less than 25 nM. Also, in test [2], the DC50 was no less than 25 nM and the “GSPT1 Ymin” value is “F (F = >75-100% remaining)”.

For the compound `O=C1CCC(N2Cc3cc(-c4nc(C(F)F)oc4-c4ccccc4)ccc3C2=O)C(=O)N1` (centres unmarked) [Example 735, 3-(5-(2-(difluoromethyl)-5-phenyloxazol-4-yl)-1-oxoisoindolin-2-yl) piperidine-2,6-dione], in test [1], the “CK1α Ymin” value is given as “C (C = 0-10% remaining)” and the DC50 is less than 25 nM. For the same compound, in test [2], the DC50 is less than 25 nM and the “GSPT1 Ymin” value is listed as “E (E = >25-75% remaining)”.

Turning to `Cc1ccc(-c2nc(-c3ccc4c(c3)CN(C3CCC(=O)NC3=O)C4=O)cn2C)c(Cl)c1` (centres unmarked) [Example 648], in test [1], the “CK1α Ymin” value is given as “D (D = >10- 25% remaining)” and the DC50 is less than 25 nM. In test [2], the DC50 is less than 25 nM and the “GSPT1 Ymin” value was “F (F = >75-100% remaining)”.

`Cn1cc(-c2ccc3c(c2)CN(C2CCC(=O)NC2=O)C3=O)nc1-c1cccc2ccccc12` (centres unmarked) [Example 676]: in test [1], the “CK1α Ymin” value is reported as “E (E = >25-75% remaining)” and the DC50 is less than 25 nM. Besides, in test [2], the DC50 was no less than 25 nM and the “GSPT1 Ymin” value is on record as “F (F = >75-100% remaining)”.

`Cn1ncc(-c2ccc3c(c2)CN(C2CCC(=O)NC2=O)C3=O)c1C1=CCC(c2ccccc2)CC1` (centres unmarked) [Example 696]: in test [1], the “CK1α Ymin” value is “E (E = >25-75% remaining)” and the DC50 is less than 25 nM. Moreover, in test [2], the DC50 was no less than 25 nM and the “GSPT1 Ymin” value was “F (F = >75-100% remaining)”.

For the compound `Cc1ccc(-c2nc(-c3ccc4c(c3)CN(C3CCC(=O)NC3=O)C4=O)cn2C)cc1F` (centres unmarked) [Example 675], in test [1], the “CK1α Ymin” value is “E (E = >25-75% remaining)” and the DC50 was less than 25 nM. Besides, in test [2], the DC50 is less than 25 nM and the “GSPT1 Ymin” value is listed as “F (F = >75-100% remaining)”.

`Cn1cc(-c2ccc3c(c2)CN(C2CCC(=O)NC2=O)C3=O)nc1-c1cccc(C(F)F)c1` (centres unmarked) [Example 626]: in test [1], the “CK1α Ymin” value is recorded as “C (C = 0-10% remaining)” and the DC50 is less than 25 nM. For the same compound, in test [2], the DC50 was no less than 25 nM and the “GSPT1 Ymin” value is “F (F = >75-100% remaining)”.

Take `CCc1nc(-c2ccc3c(c2)CN(C2CCC(=O)NC2=O)C3=O)c(-c2ccccc2)o1` (centres unmarked) [Example 720, 3-(5-(2-ethyl-5-phenyloxazol-4-yl)-1-oxoisoindolin-2-yl) piperidine-2,6-dione]: in test [1], the “CK1α Ymin” value is “C (C = 0-10% remaining)” and the DC50 was less than 25 nM. In addition, in test [2], the DC50 is less than 25 nM and the “GSPT1 Ymin” value is “E (E = >25-75% remaining)”.

Consider `Cn1cc(-c2ccc3c(c2)CN(C2CCC(=O)NC2=O)C3=O)nc1-c1ccc(O)cc1` (centres unmarked) [Example 627], for which, in test [1], the “CK1α Ymin” value is “C (C = 0-10% remaining)” and the DC50 was less than 25 nM. In addition, in test [2], the DC50 is no less than 25 nM and the “GSPT1 Ymin” value is reported as “E (E = >25-75% remaining)”.

`Cn1cc(-c2ccc3c(c2)CN(C2CCC(=O)NC2=O)C3=O)nc1-c1ccc(CN2CCOCC2)cc1` (centres unmarked) [Example 668]: in test [1], the “CK1α Ymin” value is given as “E (E = >25-75% remaining)” and the DC50 was less than 25 nM. Besides, in test [2], the DC50 is no less than 25 nM and the “GSPT1 Ymin” value is reported as “F (F = >75-100% remaining)”.

As to `Cn1cc(-c2ccc3c(c2)CN(C2CCC(=O)NC2=O)C3=O)nc1-c1nn(C)c2ccccc12` (centres unmarked) [Example 679], in test [1], the “CK1α Ymin” value is on record as “D (D = >10- 25% remaining)” and the DC50 was less than 25 nM. In addition, in test [2], the DC50 is no less than 25 nM and the “GSPT1 Ymin” value was “F (F = >75-100% remaining)”.

Take `Cn1cc(-c2ccc3c(c2)CN(C2CCC(=O)NC2=O)C3=O)nc1-c1ccc2c(c1)CCCO2` (centres unmarked) [Example 671]: in test [1], the “CK1α Ymin” value is on record as “E (E = >25-75% remaining)” and the DC50 was less than 25 nM. Besides, in test [2], the DC50 was no less than 25 nM and the “GSPT1 Ymin” value is recorded as “F (F = >75-100% remaining)”.

With `Cn1cc(-c2ccc3c(c2)CN(C2CCC(=O)NC2=O)C3=O)nc1-c1cccc(F)c1C#N` (centres unmarked) [Example 641], in test [1], the “CK1α Ymin” value is listed as “C (C = 0-10% remaining)” and the DC50 was less than 25 nM. For the same compound, in test [2], the DC50 was no less than 25 nM and the “GSPT1 Ymin” value is given as “F (F = >75-100% remaining)”.
